Test system: anti-heroin polyclonal antibodies from Group G6
Assay: SPR competitive binding assay, Her-BSA-loaded sensor chip (Biacore 3000)
Design: species or system mouse
Conditions: sera from Group G6 (vaccine stored as liquid at RT for 30 days)

CN1CC[C@]23c4c5ccc(O)c4O[C@H]2[C@@H](O)C=C[C@H]3[C@H]1C5 [morphine]
cross-reactivity to the polyclonal antibodies: low cross-reactivity
